Test results reported in ChEMBL document CHEMBL5715260, “Selectivity Literature for EUbOPEN Chemogenomic Library” (2024).

Assays:
Design in all cases: recommended concentration 1 uM
[1] = molecular target: Steroidogenic factor 1 (Homo sapiens) (UniProt Q13285); assay: Selectivity interaction (Reporter gene assay) EUB0001139a NR5A1; settings: screened at recom. conc., Selectivity number of off-targets 1.0, Selectivity number of targets 5.0, Source Knowledge inhouse
[2] = molecular target: T1, Hepatocyte nuclear factor 4-alpha (Homo sapiens) (UniProt P41235); assay: Selectivity interaction (Reporter gene assay) EUB0001139a HNF4A
T1 sequence (whole entry): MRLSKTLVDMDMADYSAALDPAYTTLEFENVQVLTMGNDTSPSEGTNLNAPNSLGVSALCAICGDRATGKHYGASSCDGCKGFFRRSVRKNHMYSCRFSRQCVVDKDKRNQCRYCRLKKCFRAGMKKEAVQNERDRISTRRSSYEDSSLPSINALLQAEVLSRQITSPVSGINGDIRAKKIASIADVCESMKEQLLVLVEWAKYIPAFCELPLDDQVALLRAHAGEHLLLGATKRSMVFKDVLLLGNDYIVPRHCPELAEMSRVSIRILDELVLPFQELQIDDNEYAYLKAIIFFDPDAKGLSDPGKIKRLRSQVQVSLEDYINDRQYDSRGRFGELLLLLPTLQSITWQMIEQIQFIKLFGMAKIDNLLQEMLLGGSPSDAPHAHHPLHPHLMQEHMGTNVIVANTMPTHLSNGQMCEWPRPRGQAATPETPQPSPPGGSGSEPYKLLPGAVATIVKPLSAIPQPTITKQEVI

[3] = molecular target: T2, Nuclear receptor subfamily 2 group C member 1 (Homo sapiens) (UniProt P13056); assay: Selectivity interaction (Reporter gene assay) EUB0001139a NR2C1
T2 sequence (whole entry): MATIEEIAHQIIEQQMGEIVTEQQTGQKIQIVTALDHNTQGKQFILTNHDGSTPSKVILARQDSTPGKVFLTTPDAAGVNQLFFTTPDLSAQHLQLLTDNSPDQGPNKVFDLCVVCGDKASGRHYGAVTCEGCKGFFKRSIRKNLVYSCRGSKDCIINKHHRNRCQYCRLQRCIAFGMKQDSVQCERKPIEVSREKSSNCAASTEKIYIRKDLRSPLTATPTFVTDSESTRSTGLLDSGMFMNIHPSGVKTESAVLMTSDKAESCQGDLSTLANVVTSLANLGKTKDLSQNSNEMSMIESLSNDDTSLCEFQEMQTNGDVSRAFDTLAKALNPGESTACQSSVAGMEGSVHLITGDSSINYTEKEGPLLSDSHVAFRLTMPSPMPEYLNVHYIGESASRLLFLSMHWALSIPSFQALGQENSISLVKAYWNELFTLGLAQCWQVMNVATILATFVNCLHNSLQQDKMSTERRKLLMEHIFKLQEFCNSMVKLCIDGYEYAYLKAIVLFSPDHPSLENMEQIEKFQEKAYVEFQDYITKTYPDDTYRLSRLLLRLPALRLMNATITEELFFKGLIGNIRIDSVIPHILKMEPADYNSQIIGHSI

[4] = molecular target: Nuclear receptor subfamily 2 group E member 1 (Homo sapiens) (UniProt Q9Y466); assay: Selectivity interaction (Reporter gene assay) EUB0001139a NR2E1
Sequence of Nuclear receptor subfamily 2 group E member 1 (Homo sapiens) (Q9Y466 whole entry): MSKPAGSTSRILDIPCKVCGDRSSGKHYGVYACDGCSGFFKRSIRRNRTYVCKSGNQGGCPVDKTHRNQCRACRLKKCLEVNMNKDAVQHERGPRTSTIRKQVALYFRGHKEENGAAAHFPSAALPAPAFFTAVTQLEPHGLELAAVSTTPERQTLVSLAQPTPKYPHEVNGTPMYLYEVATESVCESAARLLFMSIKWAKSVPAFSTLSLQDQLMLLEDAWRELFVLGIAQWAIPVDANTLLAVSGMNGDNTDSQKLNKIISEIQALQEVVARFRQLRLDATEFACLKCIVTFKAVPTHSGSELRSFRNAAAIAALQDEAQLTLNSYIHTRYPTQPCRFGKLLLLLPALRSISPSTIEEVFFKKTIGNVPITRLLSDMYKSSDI

[5] = molecular target: Nuclear receptor subfamily 4immunitygroup A member 1 (Homo sapiens) (UniProt P22736); assay: Selectivity interaction (Reporter gene assay) EUB0001139a NR4A1
Sequence of Nuclear receptor subfamily 4immunitygroup A member 1 (Homo sapiens) (P22736 whole entry): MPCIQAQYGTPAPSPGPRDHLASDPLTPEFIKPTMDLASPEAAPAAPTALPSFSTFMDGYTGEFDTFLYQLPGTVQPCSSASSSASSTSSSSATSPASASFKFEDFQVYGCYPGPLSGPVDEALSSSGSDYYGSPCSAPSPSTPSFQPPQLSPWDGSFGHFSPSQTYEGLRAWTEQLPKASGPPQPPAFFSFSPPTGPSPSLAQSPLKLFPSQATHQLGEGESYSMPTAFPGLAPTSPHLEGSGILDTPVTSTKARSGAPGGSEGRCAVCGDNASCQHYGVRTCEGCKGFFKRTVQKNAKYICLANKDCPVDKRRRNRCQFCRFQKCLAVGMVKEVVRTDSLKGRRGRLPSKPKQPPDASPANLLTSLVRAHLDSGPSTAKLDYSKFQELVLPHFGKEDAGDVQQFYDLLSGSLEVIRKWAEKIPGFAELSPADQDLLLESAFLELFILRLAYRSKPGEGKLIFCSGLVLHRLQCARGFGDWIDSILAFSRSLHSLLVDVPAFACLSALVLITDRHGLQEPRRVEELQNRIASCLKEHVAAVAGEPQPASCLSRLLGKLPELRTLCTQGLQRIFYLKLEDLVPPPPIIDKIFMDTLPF

[6] = molecular target: T3, Alpha trans-inducing protein (Human alphaherpesvirus 1) (UniProt A0A5J6DW59); assay: Selectivity interaction (Reporter gene assay) EUB0001139a UL48
T3 sequence (A0A5J6DW59 as listed by the source): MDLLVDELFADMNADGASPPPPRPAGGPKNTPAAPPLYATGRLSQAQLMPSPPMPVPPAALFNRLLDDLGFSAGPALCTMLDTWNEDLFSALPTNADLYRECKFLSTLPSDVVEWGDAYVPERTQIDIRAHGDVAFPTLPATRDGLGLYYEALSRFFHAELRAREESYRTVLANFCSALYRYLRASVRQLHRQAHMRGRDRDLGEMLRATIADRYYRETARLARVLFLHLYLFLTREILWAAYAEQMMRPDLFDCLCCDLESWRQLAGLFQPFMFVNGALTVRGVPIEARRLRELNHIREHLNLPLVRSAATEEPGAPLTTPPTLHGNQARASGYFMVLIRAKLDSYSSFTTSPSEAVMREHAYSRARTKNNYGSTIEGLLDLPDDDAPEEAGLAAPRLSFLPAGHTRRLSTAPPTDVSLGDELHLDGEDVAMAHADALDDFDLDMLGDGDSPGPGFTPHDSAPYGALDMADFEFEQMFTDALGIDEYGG

[7] = molecular target: T4, Retinoic acid receptor RXR-alpha (Homo sapiens) (UniProt P19793); assay: Selectivity interaction (Reporter gene assay) EUB0001139a RXRA
T4 sequence (whole entry): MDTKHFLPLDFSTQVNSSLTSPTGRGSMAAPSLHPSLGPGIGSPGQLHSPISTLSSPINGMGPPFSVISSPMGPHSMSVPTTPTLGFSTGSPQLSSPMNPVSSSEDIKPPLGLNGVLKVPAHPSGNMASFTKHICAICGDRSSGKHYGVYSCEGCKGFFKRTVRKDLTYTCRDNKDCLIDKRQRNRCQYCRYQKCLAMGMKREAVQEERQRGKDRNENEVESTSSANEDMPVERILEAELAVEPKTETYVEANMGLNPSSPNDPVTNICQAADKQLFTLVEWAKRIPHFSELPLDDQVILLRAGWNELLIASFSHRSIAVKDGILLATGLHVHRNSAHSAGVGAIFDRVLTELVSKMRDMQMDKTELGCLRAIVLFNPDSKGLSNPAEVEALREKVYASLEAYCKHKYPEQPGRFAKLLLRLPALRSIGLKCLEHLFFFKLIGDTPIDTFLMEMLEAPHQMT

[8] = molecular target: SRSF protein kinase 1 (Homo sapiens) (UniProt Q96SB4); assay: Selectivity interaction (Kinase panel (binding assay)) EUB0001089a SRPK1; settings: at 25 µM
Sequence of SRSF protein kinase 1 (Homo sapiens) (Q96SB4 whole entry): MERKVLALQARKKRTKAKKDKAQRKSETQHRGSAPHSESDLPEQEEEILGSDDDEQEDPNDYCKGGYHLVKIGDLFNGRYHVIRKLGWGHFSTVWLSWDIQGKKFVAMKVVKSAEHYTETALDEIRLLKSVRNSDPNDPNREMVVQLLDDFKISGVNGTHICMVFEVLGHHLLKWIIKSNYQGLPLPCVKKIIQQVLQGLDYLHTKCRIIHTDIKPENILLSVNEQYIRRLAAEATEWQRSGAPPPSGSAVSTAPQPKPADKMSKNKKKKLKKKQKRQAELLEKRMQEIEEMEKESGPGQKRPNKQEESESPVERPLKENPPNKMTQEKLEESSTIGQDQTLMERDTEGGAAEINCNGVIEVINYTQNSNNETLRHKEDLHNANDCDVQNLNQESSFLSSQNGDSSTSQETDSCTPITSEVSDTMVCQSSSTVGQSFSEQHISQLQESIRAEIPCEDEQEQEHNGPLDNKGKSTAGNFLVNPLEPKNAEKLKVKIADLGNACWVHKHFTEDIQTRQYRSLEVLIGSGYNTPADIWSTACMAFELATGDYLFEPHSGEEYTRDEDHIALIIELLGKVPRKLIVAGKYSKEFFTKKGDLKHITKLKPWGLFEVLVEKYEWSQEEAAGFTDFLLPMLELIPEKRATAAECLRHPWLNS

[9] = molecular target: T1, Hepatocyte nuclear factor 4-alpha (Homo sapiens); assay: Selectivity interaction (Reporter gene assay) EUB0001142a HNF4A
[10] = molecular target: T2, Nuclear receptor subfamily 2 group C member 1 (Homo sapiens); assay: Selectivity interaction (Reporter gene assay) EUB0001142a NR2C1
[11] = molecular target: Nuclear receptor subfamily 2 group E member 1 (Homo sapiens) (UniProt Q9Y466); assay: Selectivity interaction (Reporter gene assay) EUB0001142a NR2E1
[12] = molecular target: Nuclear receptor subfamily 4immunitygroup A member 1 (Homo sapiens) (UniProt P22736); assay: Selectivity interaction (Reporter gene assay) EUB0001142a NR4A1
[13] = molecular target: Steroidogenic factor 1 (Homo sapiens) (UniProt Q13285); assay: Selectivity interaction (Reporter gene assay) EUB0001142a NR5A1
[14] = molecular target: T3, Alpha trans-inducing protein (Human alphaherpesvirus 1); assay: Selectivity interaction (Reporter gene assay) EUB0001142a UL48
[15] = molecular target: T1, Hepatocyte nuclear factor 4-alpha (Homo sapiens); assay: Selectivity interaction (Reporter gene assay) EUB0001144a HNF4A
[16] = molecular target: T2, Nuclear receptor subfamily 2 group C member 1 (Homo sapiens); assay: Selectivity interaction (Reporter gene assay) EUB0001144a NR2C1
[17] = molecular target: Nuclear receptor subfamily 2 group E member 1 (Homo sapiens) (UniProt Q9Y466); assay: Selectivity interaction (Reporter gene assay) EUB0001144a NR2E1
[18] = molecular target: Nuclear receptor subfamily 4immunitygroup A member 1 (Homo sapiens) (UniProt P22736); assay: Selectivity interaction (Reporter gene assay) EUB0001144a NR4A1
[19] = molecular target: Steroidogenic factor 1 (Homo sapiens) (UniProt Q13285); assay: Selectivity interaction (Reporter gene assay) EUB0001144a NR5A1
[20] = molecular target: T3, Alpha trans-inducing protein (Human alphaherpesvirus 1); assay: Selectivity interaction (Reporter gene assay) EUB0001144a UL48
[21] = molecular target: T4, Retinoic acid receptor RXR-alpha (Homo sapiens); assay: Selectivity interaction (Reporter gene assay) EUB0001144a RXRA; settings: reference bexarotene 1 uM, Selectivity number of off-targets 0.0, Selectivity number of targets 1.0, Source Knowledge inhouse
[22] = molecular target: Peroxisome proliferator-activated receptor delta (Homo sapiens) (UniProt Q03181); assay: Selectivity interaction (Reporter gene assay) EUB0001140a PPARD; settings: screened at recom. conc., Selectivity number of off-targets 1.0, Selectivity number of targets 19.0, Source Knowledge inhouse
Sequence of Peroxisome proliferator-activated receptor delta (Homo sapiens) (Q03181 whole entry): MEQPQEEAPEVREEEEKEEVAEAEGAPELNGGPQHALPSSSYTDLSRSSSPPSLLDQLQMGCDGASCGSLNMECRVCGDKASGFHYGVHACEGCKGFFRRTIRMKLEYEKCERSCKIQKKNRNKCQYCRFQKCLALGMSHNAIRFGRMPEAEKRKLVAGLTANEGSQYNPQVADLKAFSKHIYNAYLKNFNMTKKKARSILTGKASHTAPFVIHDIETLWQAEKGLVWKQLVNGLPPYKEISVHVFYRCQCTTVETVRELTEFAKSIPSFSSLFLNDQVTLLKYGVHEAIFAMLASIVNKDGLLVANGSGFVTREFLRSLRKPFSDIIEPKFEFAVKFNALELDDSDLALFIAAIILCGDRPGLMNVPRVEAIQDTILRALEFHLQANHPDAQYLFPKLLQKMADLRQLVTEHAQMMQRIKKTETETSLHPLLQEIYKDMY

[23] = molecular target: T1, Hepatocyte nuclear factor 4-alpha (Homo sapiens); assay: Selectivity interaction (Reporter gene assay) EUB0001140a HNF4A
[24] = molecular target: T2, Nuclear receptor subfamily 2 group C member 1 (Homo sapiens); assay: Selectivity interaction (Reporter gene assay) EUB0001140a NR2C1
[25] = molecular target: Nuclear receptor subfamily 2 group E member 1 (Homo sapiens) (UniProt Q9Y466); assay: Selectivity interaction (Reporter gene assay) EUB0001140a NR2E1
[26] = molecular target: Nuclear receptor subfamily 4immunitygroup A member 1 (Homo sapiens) (UniProt P22736); assay: Selectivity interaction (Reporter gene assay) EUB0001140a NR4A1
[27] = molecular target: Steroidogenic factor 1 (Homo sapiens) (UniProt Q13285); assay: Selectivity interaction (Reporter gene assay) EUB0001140a NR5A1
[28] = molecular target: T3, Alpha trans-inducing protein (Human alphaherpesvirus 1); assay: Selectivity interaction (Reporter gene assay) EUB0001140a UL48
[29] = molecular target: T4, Retinoic acid receptor RXR-alpha (Homo sapiens); assay: Selectivity interaction (Reporter gene assay) EUB0001140a RXRA

Sequence of Steroidogenic factor 1 (Homo sapiens) (Q13285 whole entry): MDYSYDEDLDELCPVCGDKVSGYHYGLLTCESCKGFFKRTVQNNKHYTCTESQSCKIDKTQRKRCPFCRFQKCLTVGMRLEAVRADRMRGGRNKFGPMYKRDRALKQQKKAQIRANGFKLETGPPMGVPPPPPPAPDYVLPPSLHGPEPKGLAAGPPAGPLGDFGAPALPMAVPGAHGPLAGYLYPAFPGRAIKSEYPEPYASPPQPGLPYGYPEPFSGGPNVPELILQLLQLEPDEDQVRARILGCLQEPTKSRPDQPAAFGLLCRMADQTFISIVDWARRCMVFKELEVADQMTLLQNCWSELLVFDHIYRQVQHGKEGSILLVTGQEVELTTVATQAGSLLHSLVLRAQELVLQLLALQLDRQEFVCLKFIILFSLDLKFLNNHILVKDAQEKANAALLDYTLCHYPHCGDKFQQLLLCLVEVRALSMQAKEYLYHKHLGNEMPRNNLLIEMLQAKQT

Q: With `O=C(O)Cc1cc(I)c(Oc2ccc(O)c(I)c2)c(I)c1` as the compound, how does the Fold activation [1] read?
A: 2

Q: What about the Fold activation [2] of the same compound?
A: 1.47

Q: What about the Remaining activity [3] of the same compound?
A: 0.686

Q: What about the Fold activation [4] of the same compound?
A: 1.12

Q: What about the Remaining activity [5] of the same compound?
A: 0.863

Q: What about the P-value [6] of the same compound?
A: 0.009

Q: What about the Relative activation [7] of the same compound?
A: 0.726%

Q: `CN1CC(C(=O)NCc2ccc3c(-c4cccc(C(N)=S)c4)cn(C4CCN(S(=O)(=O)C(F)(F)F)CC4)c3c2)C1` was tested. Which inhibition [8] did it give?
A: 60%

Q: Which results are given for `CCCCCCCN(CCc1ccc(SC(C)(C)C(=O)O)cc1)C(=O)Nc1ccc(F)cc1F`?
A: Fold activation [9]: 1; Fold activation [10]: 1.16; Remaining activity [11]: 0.821; Fold activation [12]: 1; Fold activation [13]: 1; P-value [14]: 0.0039

Q: For `CCO[C@@H](Cc1ccc(OCCc2ccc(OS(C)(=O)=O)cc2)cc1)C(=O)O`, which Fold activation [15] is on record?
A: 1.01

Q: And the Fold activation [16]?
A: 1.11

Q: What about the Fold activation [17] of the same compound?
A: 1.07

Q: And the Remaining activity [18]?
A: 0.821

Q: And the Fold activation [19]?
A: 1.01

Q: What about the P-value [20] of the same compound?
A: 0.0008

Q: And the Relative activation [21]?
A: 0.813%

Q: Which results are given for `COc1ccc(OC(=O)N(CC(=O)O)Cc2ccc(OCCc3nc(-c4ccccc4)oc3C)cc2)cc1`?
A: Fold activation [22]: 6.61; Remaining activity [23]: 0.799; Remaining activity [24]: 0.747; Remaining activity [25]: 0.91; Fold activation [26]: 1.19; Remaining activity [27]: 0.916; P-value [28]: 2.24e-06; Relative activation [29]: 0.862%
